The source of these data is article PMC11266932, “Enhanced absorption of prenylated cinnamic acid derivatives from Brazilian green propolis by turmeric in humans and rats” (Food Science & Nutrition, 2024).

Data set [1] in a line: Bidirectional transport assay across parent MDCK II cell monolayer. The data set is classed as in vitro ADME, canine. The conditions noted are these: dog; for efflux ratio at 120 min, 10 μM: MDCK, pH 7.4, 10 μM, Papp B to A / Papp A to B, read-out: Flux ratio (MDCK II) (efflux ratio, ER); for Papp A→B at 120 min, 10 μM / Papp B→A at 120 min, 10 μM: mean ± SE, n = 2. The method, then: (§1) The Madin‐Darby canine kidney (MDCK II) cell line and MDCK II cells overexpressing multidrug resistance 1 (MDR1) or breast cancer resistance protein (BCRP) were purchased from the Netherlands Cancer Institute (Amsterdam, Netherlands) and SOLVO Biotechnology (Szeged, Hungary), respectively. The cell lines were routinely cultured in Dulbecco's modified Eagle's medium (DMEM) containing 10% fetal bovine serum and 1% penicillin/streptomycin at 37°C in 5% CO2. All cells were seeded in a feeder tray at a density of 3–6 × 10^4 cells/well and grown for 3–4 days. On the day of the transport study, cell monolayers were washed with Hanks' balanced salt solution (HBSS) buffer containing 0.1% BSA (pH 7.4) and incubated at 37°C for 20 min. Artepillin C and drupanin dissolved in DMSO (10 mM) were added to the transport buffer (HBSS containing 10 mM HEPES, 0.2% glucose, 0.1% BSA, pH 7.4) to a final concentration of 10 μM and then loaded into the apical or basolateral chamber. After 120 min of incubation, 150 μL of the aliquots were collected from the donor and receiver chambers and mixed with an equal volume of 50% methanol. After centrifugation at 3000 rpm for 10 min at 4°C, the supernatants were filtered and subjected to LC–MS/MS analysis.
(§2) The in vitro samples were analyzed using HPLC (LC‐20A, Shimadzu, Kyoto, Japan) with a reversed‐phase column (Inertsil ODS‐3, 2.1 × 33 mm, ID. 3 μm, GL Sciences, Tokyo, Japan) held at 40°C. The mobile solvents used were water with 10 mM ammonium acetate (pH 4.0, A) and methanol (B) pumped at a flow rate of 0.4 mL/min. The following gradient was employed: 10%–90% B (0–0.5 min), 90% B (0.5–2.5 min), and 10% B (2.5–4 min). The eluent was monitored using a triple quadrupole mass spectrometer (API 4000, AB Sciex, Framingham, MA, USA) incorporating an electrospray ion source (ESI) operating in the multiple reaction monitoring mode. The ESI source was operated in negative ionization mode at 600°C with a spray voltage of −4.5 kV. The curtain gas (nitrogen), collision gas (nitrogen), nebulizer gas (whole air), and drying gas (whole air) were set at 40, 5, 50, and 70 psi, respectively. […] Artepillin C and drupanin were diluted in 50% methanol to concentrations of 1.6, 3.2, 8, 40, 200, 1000, and 2000 nM and were used as external standards. Sulfaphenazole (0.2 μM) was used as an internal standard.
(§3) The apparent permeability coefficients (Papp) for both directions, from the apical side to the basolateral side (A to B) and from the basolateral side to the apical side (B to A) in the cell monolayer, were calculated using the following equation: (1) Papp=dQ/dt/A×C0 where dQ/dt is the permeation rate (nmol/s), A is the membrane area (cm^2), and C0 is the initial concentration of the compound in the donor compartment (nM). The efflux ratios (ER) in the B‐to‐A and A‐to‐B directions were determined using the following equation: (2) ER=PappBtoA/PappAtoB

In data set [2] the target is T1, MDR1 (P-gp) (Homo sapiens, UniProt P08183).
T1 construct: host or cells: MDCK II (Madin-Darby canine kidney) cells overexpressing MDR1
T1 sequence (P08183 whole entry): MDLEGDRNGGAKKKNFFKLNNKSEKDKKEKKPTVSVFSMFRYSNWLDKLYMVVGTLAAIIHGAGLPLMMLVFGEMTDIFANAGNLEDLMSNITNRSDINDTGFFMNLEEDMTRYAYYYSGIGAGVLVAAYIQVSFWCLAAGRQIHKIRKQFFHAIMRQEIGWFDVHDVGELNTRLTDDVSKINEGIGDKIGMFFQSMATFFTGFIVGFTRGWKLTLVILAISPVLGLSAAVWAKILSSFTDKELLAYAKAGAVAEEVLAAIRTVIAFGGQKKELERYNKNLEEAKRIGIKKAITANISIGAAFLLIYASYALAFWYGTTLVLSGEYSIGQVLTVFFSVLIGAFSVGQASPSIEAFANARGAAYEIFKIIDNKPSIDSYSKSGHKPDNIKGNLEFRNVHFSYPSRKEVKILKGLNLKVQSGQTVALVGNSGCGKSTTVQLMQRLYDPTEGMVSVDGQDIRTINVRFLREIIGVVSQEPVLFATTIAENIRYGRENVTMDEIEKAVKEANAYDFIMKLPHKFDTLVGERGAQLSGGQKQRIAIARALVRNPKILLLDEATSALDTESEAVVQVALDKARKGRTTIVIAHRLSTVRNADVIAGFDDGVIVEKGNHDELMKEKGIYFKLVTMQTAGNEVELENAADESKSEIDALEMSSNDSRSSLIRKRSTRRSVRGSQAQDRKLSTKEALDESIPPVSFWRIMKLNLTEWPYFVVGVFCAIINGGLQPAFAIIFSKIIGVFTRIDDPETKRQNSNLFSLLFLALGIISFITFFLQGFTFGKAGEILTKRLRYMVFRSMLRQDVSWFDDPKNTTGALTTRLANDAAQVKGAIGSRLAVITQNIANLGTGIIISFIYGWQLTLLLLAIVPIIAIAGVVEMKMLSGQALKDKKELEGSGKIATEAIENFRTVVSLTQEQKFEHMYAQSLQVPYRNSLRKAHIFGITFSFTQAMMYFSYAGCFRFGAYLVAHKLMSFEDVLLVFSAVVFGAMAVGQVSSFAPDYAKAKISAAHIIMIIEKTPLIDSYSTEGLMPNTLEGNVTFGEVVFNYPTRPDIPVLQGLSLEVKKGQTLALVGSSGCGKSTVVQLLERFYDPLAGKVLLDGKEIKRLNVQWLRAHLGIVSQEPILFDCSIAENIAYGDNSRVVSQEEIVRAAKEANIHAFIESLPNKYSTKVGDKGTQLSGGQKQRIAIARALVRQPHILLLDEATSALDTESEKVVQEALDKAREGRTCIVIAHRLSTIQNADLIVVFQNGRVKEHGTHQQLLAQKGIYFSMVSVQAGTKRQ
Description: Bidirectional transport assay across MDCK II-MDR1 cell monolayer. In kind it is in vitro ADME. The conditions noted are these: dog, MDCK-MDR1, pH 7.4. How it is done: as §1, §2, §3
(§4) Net flux ratios were calculated by dividing the ER obtained from MDCK II‐MDR1 (or BCRP) cells by that obtained from the parent MDCK II cells.

For data set [3], the target named is T2, BCRP (Homo sapiens, UniProt Q9UNQ0).
T2 construct: host or cells: MDCK II (Madin-Darby canine kidney) cells overexpressing BCRP
T2 sequence (Q9UNQ0 1-655): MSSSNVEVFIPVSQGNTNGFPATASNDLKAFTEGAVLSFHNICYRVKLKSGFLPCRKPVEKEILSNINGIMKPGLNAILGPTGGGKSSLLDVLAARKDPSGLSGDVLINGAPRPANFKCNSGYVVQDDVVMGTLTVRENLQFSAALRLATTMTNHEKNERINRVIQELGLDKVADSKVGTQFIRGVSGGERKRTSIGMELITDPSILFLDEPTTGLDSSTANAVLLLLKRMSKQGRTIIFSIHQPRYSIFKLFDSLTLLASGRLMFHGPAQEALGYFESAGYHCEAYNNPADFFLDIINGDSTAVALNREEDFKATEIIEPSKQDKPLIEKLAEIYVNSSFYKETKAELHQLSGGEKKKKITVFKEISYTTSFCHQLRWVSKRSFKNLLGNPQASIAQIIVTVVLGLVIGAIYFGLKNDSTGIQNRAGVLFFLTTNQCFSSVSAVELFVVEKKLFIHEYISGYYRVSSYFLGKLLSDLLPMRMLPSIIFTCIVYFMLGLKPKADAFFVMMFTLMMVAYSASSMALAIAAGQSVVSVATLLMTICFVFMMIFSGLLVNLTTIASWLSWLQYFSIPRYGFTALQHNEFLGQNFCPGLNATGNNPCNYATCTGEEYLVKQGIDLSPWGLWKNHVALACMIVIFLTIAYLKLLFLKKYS
As to the kind of experiment: Bidirectional transport assay across MDCK II-BCRP cell monolayer. In kind it is in vitro ADME. The conditions noted are these: dog, pH 7.4. How it is done: as §1, §2, §3, §4

Data set [4] has as its system MDCK II cell monolayer. As to the kind of experiment: Bidirectional transport assay across parent MDCK II cell monolayer. The data set is classed as in vitro ADME, canine. The conditions noted are these: 10 μM; for Papp MDCK II A to B / Papp MDCK II B to A: 120 min, mean ± SE, n = 2. How it is done:
as §1, §2, §3

Where [5] appears, read: MDCK-MDR1, pH 7.4, parent cells of the MDR1 experiment (Table 2).
Where [6] appears, read: pH 7.4, parent cells of the BCRP experiment (Table 3).
Where [7] appears, read: 10 μM, 120 min, mean ± SE, n = 2.
[8] abbreviates: parent cells of the BCRP experiment (Table 3).
Where [9] appears, read: parent cells of the MDR1 experiment (Table 2).

Read-outs that look alike come from different tables or passages of the source.

Usually Papp A→B stands for the apparent permeability from the apical to the basolateral side of a cell layer. For orientation: Papp B→A means the apparent permeability from the basolateral to the apical side of a cell layer.

Consider `CC(C)=CCc1cc(/C=C/C(=O)O)ccc1O` [drupanin], for which the efflux ratio at 120 min, 10 μM in data set [1] (Table 2 experiment) was 0.9; in data set [1] (Table 3 experiment) it was 0.8; in data set [2] (read-out: Flux ratio (MDCK II‐MDR1) (efflux ratio, ER)) it was 0.8; in data set [3] (read-out: Flux ratio (MDCK II‐BCRP) (efflux ratio, ER)) it was 15.7. Besides, the Papp A→B at 120 min, 10 μM in data set [1] (setting [5]) stood at 11.1 ± 0.2 ×10⁻⁶ cm/s; in data set [1] (setting [6]) it was 11.6 ± 0.1 ×10⁻⁶ cm/s; in data set [2] (setting [7]), 13.3 ± 1.4 ×10⁻⁶ cm/s; in data set [3] (setting [7]), 1.3 ± 0.1 ×10⁻⁶ cm/s. The Papp B→A at 120 min, 10 μM in data set [1] (setting [5]) came out at 9.9 ± 0.2 ×10⁻⁶ cm/s; in data set [1] (setting [6]) it was 8.9 ± 0.4 ×10⁻⁶ cm/s; in data set [2] (setting [7]), 11.2 ± 0.2 ×10⁻⁶ cm/s; in data set [3] (setting [7]) it was 20.9 ± 0.1 ×10⁻⁶ cm/s.
Consider `CC(C)=CCc1cc(/C=C/C(=O)O)cc(CC=C(C)C)c1O` [artepillin C], for which, in data set [4] (setting [8]), the “Papp MDCK II A to B” value is recorded as 13.0 ± 0.8 10^−6 cm/s and the “Papp MDCK II B to A” value is given as 10.8 ± 0.1 10^−6 cm/s. Besides, in data set [4] (setting [9]), the “Papp MDCK II A to B” value is recorded as 14.0 ± 0.7 10^−6 cm/s and the “Papp MDCK II B to A” value is 11.2 ± 1.2 10^−6 cm/s. The “Flux ratio (MDCK II) (efflux ratio, ER)” value in data set [4] (Papp B to A / Papp A to B, Table 2 experiment) is reported as 0.8.
